# System: HCT116 colorectal cancer cells
# Assay: Cisplatin sensitization assay (96 h cell viability MTS);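 note: Test-compound concentration that lowers the Cisplatin IC50 by a set fold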
# Assay type: cell-based
# Settings: compound and Cisplatin added simultaneously, Cisplatin sensitization value
# Procedure, shortened: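 Viability read by MTS (1 h at 37° C) after 96 h co-exposure at 37° C, 5% CO2. Test compound and cisplatin were dosed simultaneously in a full concentration matrix, each 2-fold serially diluted from 10 μM final; sensitization values binned in μM.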
row,Structure (SMILES),Cisplatin Sensitization Assay
1,"CN1CCC(Oc2ccncc2NC(=O)c2c(N)nn3cc(Cl)cnc23)CC1 [I-O-64, 2-amino-6-chloro-N-(4-((1-methylpiperidin-4-yl)oxy)pyridin-3-yl)pyrazolo[1,5-a]pyrimidine-3-carboxamide]",+++ (Cisplatin sensitization value of <0.02 μM)
2,"Nc1nn2cc(Cl)cnc2c1C(=O)Nc1cnccc1OC1CCCOC1 (centres unmarked) [I-O-65, 2-amino-6-chloro-N-(4-((tetrahydro-2H-pyran-3-yl)oxy)pyridin-3-yl)pyrazolo[1,5-a]pyrimidine-3-carboxamide]",+++ (Cisplatin sensitization value of <0.02 μM)
3,"Nc1nn2cc(Cl)cnc2c1C(=O)Nc1cnccc1OCCO [I-O-66, 2-amino-6-chloro-N-(4-(2-hydroxyethoxy)pyridin-3-yl)pyrazolo[1,5-a]pyrimidine-3-carboxamide]",+ (Cisplatin sensitization value>0.2 μM but <5 μM)
4,"COCCN1CCC[C@H](Oc2ccncc2NC(=O)c2c(N)nn3cc(Cl)cnc23)C1 [I-O-67, (S)-2-amino-6-chloro-N-(4-((1-(2-methoxyethyl)piperidin-3-yl)oxy)pyridin-3-yl)pyrazolo[1,5-a]pyrimidine-3-carboxamide]",++ (Cisplatin sensitization value>0.02 μM but <0.2 μM)
5,"CN(C)CCOc1cc(Cl)ncc1NC(=O)c1c(N)nn2cc(Cl)cnc12 [I-O-68, 2-amino-6-chloro-N-(6-chloro-4-(2-(dimethylamino)ethoxy)pyridin-3-yl)pyrazolo[1,5-a]pyrimidine-3-carboxamide]",++ (Cisplatin sensitization value>0.02 μM but <0.2 μM)
6,"CN1CC[C@H](Oc2ccncc2NC(=O)c2c(N)nn3cc(Cl)cnc23)C1 [I-O-69, (S)-2-amino-6-chloro-N-(4-((1-methylpyrrolidin-3-yl)oxy)pyridin-3-yl)pyrazolo[1,5-a]pyrimidine-3-carboxamide]",++ (Cisplatin sensitization value>0.02 μM but <0.2 μM)
7,"Nc1nn2cc(Cl)cnc2c1C(=O)Nc1cnccc1Oc1cccnc1 [I-O-70, 2-amino-6-chloro-N-(4-(pyridin-3-yloxy)pyridin-3-yl)pyrazolo[1,5-a]pyrimidine-3-carboxamide]",+++ (Cisplatin sensitization value of <0.02 μM)
8,"CN(C)CCOc1cc(C(F)(F)F)ncc1NC(=O)c1c(N)nn2cc(Cl)cnc12 [I-O-71, 2-amino-6-chloro-N-(4-(2-(dimethylamino)ethoxy)-6-(trifluoromethyl)pyridin-3-yl)pyrazolo[1,5-a]pyrimidine-3-carboxamide]",+ (Cisplatin sensitization value>0.2 μM but <5 μM)
9,"Nc1nn2cc(Cl)cnc2c1C(=O)Nc1cnccc1OC1CC2(CNC2)C1 [I-O-72, N-(4-(2-azaspiro[3.3]heptan-6-yloxy)pyridin-3-yl)-2-amino-6-chloropyrazolo[1,5-a]pyrimidine-3-carboxamide]",+ (Cisplatin sensitization value>0.2 μM but <5 μM)
10,"Nc1nn2cc(Cl)cnc2c1C(=O)Nc1cnccc1OC1CNC1 [I-O-73, 2-amino-N-(4-(azetidin-3-yloxy)pyridin-3-yl)-6-chloropyrazolo[1,5-a]pyrimidine-3-carboxamide]",+ (Cisplatin sensitization value>0.2 μM but <5 μM)
11,"Nc1nn2cc(Cl)cnc2c1C(=O)Nc1cnccc1O[C@H]1CCCNC1 [I-O-74, (S)-2-amino-6-chloro-N-(4-(piperidin-3-yloxy)pyridin-3-yl)pyrazolo[1,5-a]pyrimidine-3-carboxamide]",++ (Cisplatin sensitization value>0.02 μM but <0.2 μM)
12,"Nc1nn2cc(Cl)cnc2c1C(=O)Nc1cnccc1OC1CCCNC1 (centres unmarked) [I-O-75, 2-amino-6-chloro-N-(4-(piperidin-3-yloxy)pyridin-3-yl)pyrazolo[1,5-a]pyrimidine-3-carboxamide]",++ (Cisplatin sensitization value>0.02 μM but <0.2 μM)
13,"Nc1nn2cc(Cl)cnc2c1C(=O)Nc1cnccc1O[C@H]1CCNC1 [I-O-76, (S)-2-amino-6-chloro-N-(4-(pyrrolidin-3-yloxy)pyridin-3-yl)pyrazolo[1,5-a]pyrimidine-3-carboxamide]",++ (Cisplatin sensitization value>0.02 μM but <0.2 μM)
14,"Nc1nn2cc(Cl)cnc2c1C(=O)Nc1cnccc1O[C@@H]1CCNC1 [I-O-77, (R)-2-amino-6-chloro-N-(4-(pyrrolidin-3-yloxy)pyridin-3-yl)pyrazolo[1,5-a]pyrimidine-3-carboxamide]",++ (Cisplatin sensitization value>0.02 μM but <0.2 μM)
15,"Nc1nn2cc(Cl)cnc2c1C(=O)Nc1cnccc1O[C@H]1C[C@]2(CCN2)C1 [I-O-78, N-(4-((4s,6r)-1-azaspiro[3.3]heptan-6-yloxy)pyridin-3-yl)-2-amino-6-chloropyrazolo[1,5-a]pyrimidine-3-carboxamide]",+ (Cisplatin sensitization value>0.2 μM but <5 μM)
16,"Nc1nn2cc(Cl)cnc2c1C(=O)Nc1cnccc1O[C@H]1C[C@@]2(CCN2)C1 [I-O-79, N-(4-((4r,6s)-1-azaspiro[3.3]heptan-6-yloxy)pyridin-3-yl)-2-amino-6-chloropyrazolo[1,5-a]pyrimidine-3-carboxamide]",++ (Cisplatin sensitization value>0.02 μM but <0.2 μM)
17,"Nc1nn2cc(Cl)cnc2c1C(=O)Nc1cnccc1OC1CCNCC1 [I-O-80, 2-amino-6-chloro-N-(4-(piperidin-4-yloxy)pyridin-3-yl)pyrazolo[1,5-a]pyrimidine-3-carboxamide]",+++ (Cisplatin sensitization value of <0.02 μM)
18,"Nc1nn2cc(Cl)cnc2c1C(=O)Nc1cnccc1O[C@@H]1CCCNC1 [I-O-81, (R)-2-amino-6-chloro-N-(4-(piperidin-3-yloxy)pyridin-3-yl)pyrazolo[1,5-a]pyrimidine-3-carboxamide]",++ (Cisplatin sensitization value>0.02 μM but <0.2 μM)
19,"N#CCc1cnc2c(C(=O)Nc3cnccc3OC3CNC3)c(N)nn2c1 [I-O-82, 2-amino-N-(4-(azetidin-3-yloxy)pyridin-3-yl)-6-(cyanomethyl)pyrazolo[1,5-a]pyrimidine-3-carboxamide]",++ (Cisplatin sensitization value>0.02 μM but <0.2 μM)
20,"N#CCc1cnc2c(C(=O)Nc3cnccc3OCCN)c(N)nn2c1 [I-O-83, 2-amino-N-(4-(2-aminoethoxy)pyridin-3-yl)-6-(cyanomethyl)pyrazolo[1,5-a]pyrimidine-3-carboxamide]",+++ (Cisplatin sensitization value of <0.02 μM)
21,"N#CCc1cnc2c(C(=O)Nc3cnccc3OC3CCNCC3)c(N)nn2c1 [I-O-84, 2-amino-6-(cyanomethyl)-N-(4-(piperidin-4-yloxy)pyridin-3-yl)pyrazolo[1,5-a]pyrimidine-3-carboxamide]",++ (Cisplatin sensitization value>0.02 μM but <0.2 μM)
22,"Nc1nn2cc(F)cnc2c1C(=O)Nc1cnccc1O[C@H]1CCCNC1 [I-O-85, (S)-2-amino-6-fluoro-N-(4-(piperidin-3-yloxy)pyridin-3-yl)pyrazolo[1,5-a]pyrimidine-3-carboxamide]",+++ (Cisplatin sensitization value of <0.02 μM)
23,"N#CCc1cnc2c(C(=O)Nc3cnccc3O[C@H]3CCNC3)c(N)nn2c1 [I-O-86, (S)-2-amino-6-(cyanomethyl)-N-(4-(pyrrolidin-3-yloxy)pyridin-3-yl)pyrazolo[1,5-a]pyrimidine-3-carboxamide]",++ (Cisplatin sensitization value>0.02 μM but <0.2 μM)
24,"N#CCc1cnc2c(C(=O)Nc3cnccc3O[C@@H]3CCNC3)c(N)nn2c1 [I-O-87, (R)-2-amino-6-(cyanomethyl)-N-(4-(pyrrolidin-3-yloxy)pyridin-3-yl)pyrazolo[1,5-a]pyrimidine-3-carboxamide]",++ (Cisplatin sensitization value>0.02 μM but <0.2 μM)
25,"CC(C)(C)Oc1ccncc1NC(=O)c1c(N)nn2cc(F)cnc12 [I-O-88, 2-amino-N-(4-(tert-butoxy)pyridin-3-yl)-6-fluoropyrazolo[1,5-a]pyrimidine-3-carboxamide]",+++ (Cisplatin sensitization value of <0.02 μM)
26,"CN1CCC(Oc2c(F)cncc2NC(=O)c2c(N)nn3cc(F)cnc23)CC1 [I-O-89, 2-amino-6-fluoro-N-(5-fluoro-4-((1-methylpiperidin-4-yl)oxy)pyridin-3-yl)pyrazolo[1,5-a]pyrimidine-3-carboxamide]",++ (Cisplatin sensitization value>0.02 μM but <0.2 μM)
27,"CNc1cc(OC)c(NC(=O)c2c(N)nn3cc(F)cnc23)cn1 [I-O-90, 2-amino-6-fluoro-N-(4-methoxy-6-(methylamino)pyridin-3-yl)pyrazolo[1,5-a]pyrimidine-3-carboxamide]",+ (Cisplatin sensitization value>0.2 μM but <5 μM)
28,"Nc1nn2cc(F)cnc2c1C(=O)Nc1cncc(F)c1OC1CCN(C2COC2)CC1 [I-O-91, 2-amino-6-fluoro-N-(5-fluoro-4-((1-(oxetan-3-yl)piperidin-4-yl)oxy)pyridin-3-yl)pyrazolo[1,5-a]pyrimidine-3-carboxamide]",++ (Cisplatin sensitization value>0.02 μM but <0.2 μM)
29,"Nc1nn2cc(F)cnc2c1C(=O)Nc1cnccc1OC1COC1 [I-O-92, 2-amino-6-fluoro-N-(4-(oxetan-3-yloxy)pyridin-3-yl)pyrazolo[1,5-a]pyrimidine-3-carboxamide]",+++ (Cisplatin sensitization value of <0.02 μM)

# Reference: patent publication US11370798B2 (Vertex Pharmaceuticals Incorporated, priority 2012, dated 2022)
